The supplement of paper PMC11061612

What was measured:
Experiment in all cases: combination Emax (second highest fraction inhibited in the dose matrix, 72 h); higher = more inhibition; extreme values may be limits of the assay
[1] = system: T-T (Esophageal Squamous Cell Carcinoma)
Procedure, shortened: (§1)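 Cell lines in DMEM/F12 or RPMI with 10% FBS were plated in 1536-well plates, held 24 hours at 37°C, 5% CO2, then given two-drug dose matrices for 72 hours (DMSO typically 0.2%). Viability was read by CellTiter-Glo 2.0 luminescence and scaled as inhibition from 0 (vehicle wells) to 1 (blank wells). Combination Emax is the second-highest inhibition in the matrix; Bliss excess is observed combination effect minus expected EA + EB − EA·EB, EA and EB being single-agent effects.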

[2] = system: NCI-H526 (Small Cell Lung Carcinoma)
Procedure, shortened: as §1

[3] = system: CHSA8926 (Chondrosarcoma)
Procedure, shortened: as §1

[4] = system: MN-60 (B-Lymphoblastic Leukemia)
Procedure, shortened: as §1

[5] = system: M059J (Glioblastoma)
Procedure, shortened: as §1

[6] = system: VMRC-RCZ (Kidney Carcinoma)
Procedure, shortened: as §1

[7] = system: NCI-H520 (Squamous Cell Lung Carcinoma)
Procedure, shortened: as §1

[8] = system: NCI-H2731 (Mesothelioma)
Procedure, shortened: as §1

[9] = system: PC-3 (Prostate Carcinoma)
Procedure, shortened: as §1

[10] = system: G-361 (Melanoma)
Procedure, shortened: as §1

[11] = system: SK-GT-2 (Gastric Carcinoma)
Procedure, shortened: as §1

[12] = system: 8505C (Thyroid Gland Carcinoma)
Procedure, shortened: as §1

[13] = system: IM-95 (Gastric Carcinoma)
Procedure, shortened: as §1

[14] = system: COR-L279 (Small Cell Lung Carcinoma)
Procedure, shortened: as §1

[15] = system: ST486 (Burkitt's Lymphoma)
Procedure, shortened: as §1

[16] = system: DMS-114 (Small Cell Lung Carcinoma)
Procedure, shortened: as §1

[17] = system: HCC1187 (Breast Carcinoma)
Procedure, shortened: as §1

[18] = system: SJSA-1 (Osteosarcoma)
Procedure, shortened: as §1

[19] = system: MOLM-13 (Acute Myeloid Leukemia)
Procedure, shortened: as §1

[20] = system: NCI-H929 (Plasma Cell Myeloma)
Procedure, shortened: as §1

Row | Structure (SMILES) | combination Emax [1] | combination Emax [2] | combination Emax [3] | combination Emax [4] | combination Emax [5] | combination Emax [6] | combination Emax [7] | combination Emax [8] | combination Emax [9] | combination Emax [10] | combination Emax [11] | combination Emax [12] | combination Emax [13] | combination Emax [14] | combination Emax [15] | combination Emax [16] | combination Emax [17] | combination Emax [18] | combination Emax [19] | combination Emax [20]
1 | CN(CCO)CC[C@H](CSc1ccccc1)Nc1ccc(S(=O)(=O)NC(=O)c2ccc(N3CCC([C@@H](O)c4ccccc4-c4ccc(Cl)cc4)CC3)cc2)cc1S(=O)(=O)C(F)(F)F [AZD4320] + Cn1cnc2c(F)c(Nc3ccc(Br)cc3Cl)c(C(=O)NOCCO)cc21 [Selumetinib] (first compound max 1 µM, 7x7, partner max 3 µM) | 0.325 | 0.984 | 0.643 | 0.321 | 0.3 | 0.238 | 0.203 | 0.22 | 0.352 | 0.849 | 0.241 | 0.475 | 0.876 | 0.997 | 0.866 | 0.358 | 0.377 | 0.429 | 1 | 0.631
2 | Cc1cc2ncnn2cc1Nc1ncc2c(n1)n(C1CCOCC1)c(=O)n2C [AZD7648] + CN(C)CCCOc1ccc(-c2ccc3ncc4c(c3c2)n(C2CCOCC2)c(=O)n4C)cn1 [AZD0156] (first compound max 10 µM, 7x7, partner max 1 µM) | 0.246 | 0.15 | 0.446 | 0.201 | 0.321 | 0.256 | 0.614 | 0.274 | 0.257 | 0.217 | 0.159 | 0.189 | 0.303 | 0.4 | 0.274 | 0.293 | 0.104 | 0.456 | 0.523 | 0.855
3 | CC(=O)c1c(C)c2cnc(Nc3ccc(N4CCNCC4)cn3)nc2n(C2CCCC2)c1=O [Palbociclib] + CC1(C)CCC(CN2CCN(c3ccc(C(=O)NS(=O)(=O)c4ccc(NCC5CCOCC5)c([N+](=O)[O-])c4)c(Oc4cnc5[nH]ccc5c4)c3)CC2)=C(c2ccc(Cl)cc2)C1 [Venetoclax] (first compound max 10 µM, 7x7, partner max 1 µM) | 0.242 | 0.71 | 0.188 | 0.422 | 0.0491 | 0.105 | 0.628 | 0.211 | 0.1 | 0.488 | 0.0922 | 0.047 | 0.105 | 0.375 | 0.581 | 0.209 | 0.198 | 0.276 | 1 | 0.356
4 | COc1cccc(OCCCN)c1-c1cc(Nc2cnc(C#N)cn2)n[nH]1 [Prexasertib] + C=CCn1c(=O)c2cnc(Nc3ccc(N4CCN(C)CC4)cc3)nc2n1-c1cccc(C(C)(C)O)n1 [AZD1775] (first compound max 1 µM, partner max 1 µM) | 0.888 | 0.937 | 0.531 | 0.653 | 0.822 | 0.388 | 0.853 | 0.544 | 0.442 | 0.765 | 0.899 | 0.727 | 0.691 | 0.881 | 1 | 0.385 | 0.819 | 0.686 | 1 | 0.847
5 | Cn1cnc2c(F)c(Nc3ccc(Br)cc3Cl)c(C(=O)NOCCO)cc21 [Selumetinib] + CC(C)n1c(=O)n(C)c2cnc3cc(F)c(-c4ccc(OCCCN5CCCCC5)nc4)cc3c21 [AZD1390] (first compound max 10 µM, 7x7, partner max 0.3 µM) | 0.264 | 0.0826 | 0.185 | 0.052 | 0.107 | 0.101 | 0.147 | 0.0731 | 0.0591 | 0.674 | 0.113 | 0.584 | 0.222 | 0.194 | 0.455 | 0.199 | 0.179 | 0.307 | 0.767 | 0.611
6 | CC1(C)CCC(CN2CCN(c3ccc(C(=O)NS(=O)(=O)c4ccc(NCC5CCOCC5)c([N+](=O)[O-])c4)c(Oc4cnc5[nH]ccc5c4)c3)CC2)=C(c2ccc(Cl)cc2)C1 [Venetoclax] + Cc1cc2ncnn2cc1Nc1ncc2c(n1)n(C1CCOCC1)c(=O)n2C [AZD7648] (first compound max 1 µM, 7x7, partner max 10 µM) | 0.172 | 0.657 | 0.359 | 0.299 | 0.279 | 0.112 | 0.54 | 0.157 | 0.263 | 0.152 | 0.155 | 0.187 | 0.155 | 0.372 | 0.69 | 0.315 | 0.142 | 0.291 | 0.956 | 0.812
7 | NC1(C(=O)N[C@@H](CCO)c2ccc(Cl)cc2)CCN(c2ncnc3[nH]ccc23)CC1 [Capivasertib] + CC(C)n1c(=O)n(C)c2cnc3cc(F)c(-c4ccc(OCCCN5CCCCC5)nc4)cc3c21 [AZD1390] (first compound max 10 µM, 7x7, partner max 0.3 µM) | 0.282 | 0.282 | 0.379 | 0.44 | 0.512 | 0.372 | 0.699 | 0.265 | 0.322 | 0.282 | 0.338 | 0.195 | 0.333 | 0.602 | 0.215 | 0.442 | 0.296 | 0.406 | 0.739 | 1
8 | CN(CCO)CC[C@H](CSc1ccccc1)Nc1ccc(S(=O)(=O)NC(=O)c2ccc(N3CCC([C@@H](O)c4ccccc4-c4ccc(Cl)cc4)CC3)cc2)cc1S(=O)(=O)C(F)(F)F [AZD4320] + C[C@@H](Nc1cc(F)cc(F)c1)c1cc(C(=O)N(C)C)cc2c(=O)cc(N3CCOCC3)oc12 [AZD8186] (first compound max 1 µM, 7x7, partner max 3 µM) | 0.305 | 0.973 | 0.863 | 0.226 | 0.306 | 0.397 | 0.688 | 0.552 | 0.437 | 0.332 | 0.237 | 0.502 | 0.855 | 1 | 0.887 | 0.362 | 0.35 | 0.315 | 1 | 0.792
9 | C[C@@H](c1ccc2nccn2c1)n1nnc2ncc(-c3cnn(C)c3)nc21 [Savolitinib] + CC1(C)CCC(CN2CCN(c3ccc(C(=O)NS(=O)(=O)c4ccc(NCC5CCOCC5)c([N+](=O)[O-])c4)c(Oc4cnc5[nH]ccc5c4)c3)CC2)=C(c2ccc(Cl)cc2)C1 [Venetoclax] (first compound max 1 µM, 7x7, partner max 1 µM) | 0.236 | 0.621 | 0.29 | 0.125 | 0.182 | 0.152 | 0.138 | 0.144 | 0.121 | 0.106 | 0.139 | 0.12 | 0.333 | 0.199 | 0.118 | 0.299 | 0.0587 | 0.109 | 0.923 | 0.261
